# Source: patent publication US4740501A (priority 1985, dated 1988)
# How the values were obtained:
# [1] = tested on: MMTV; assay: Extracellular MMTV protein by ELISA; assay type: cell-based, mouse; settings: for ug MMTV protein/150 cm^2 culture: untreated 20.32
# Description: Extracellular MMTV was quantitated using a modification of a direct Enzyme-Linked Immunosorbent Assay (ELISA) technique devised by Khan et al. (1982). Nunc immunoplates were sensitized with MMTV preparations disrupted in 2% NP-40 and serially diluted in 0.15M Na2 CO3 -0.035M NaHCO3 buffer, pH 8.6, by incubation in a moist chamber for 18 hours at 4° C. Wells were washed three times between all procedural steps with 0.01M phosphate-buffered-saline with 0.5% Tween 80, pH 7.4 (Pi/Na/Tween). Sensitized wells were then sequentially subjected to 1 hour incubations with (1) 0.5% bovine serum albumin in Pi/NaCl/Tween (4° C.), followed by either (2) preimmune rabbit sera or multivalent anti-MMTV antisera diluted 1:50 in Pi/NaCl/Tween at 37° C., and finally (3) a 1:1000 dilution of alkaline phosphatase-conjugated goat anti-rabbit IgG (Dynatech, Inc.) at 37° C. Reactions were terminated with 25 ul of 3N NaOH after incubation for 1 to 2 hours at 37° C. Intensity of the color reactions were determined at […] using a Dynatech ELISA plate reader. The detection limit of the assay was 3-5 ng MMTV protein per well.
# [2] = tested on: L1210 leukemia; assay: cells; assay type: cell-based, mice
# [3] = tested on: MJY-alpha mammary tumor cell layers; assay: Tumor cell survival (trypan blue), continuous exposure; assay type: cell-based, Mouse; settings: for Percent Tumor Cell Survival / % tumor cell survival / reduction of tumor cell survival: MJY-alpha; for Percent Tumor Cell Survival: treated 24 hr; for reduction of tumor cell survival: 10 microgram/ml
# [4] = tested on: AMML; assay: Survival of fresh human leukemic cells, continuous exposure; assay type: cell-based
# [5] = tested on: L1210 leukemia cells
# [6] = tested on: C-type virus; assay: Monitoring of treated MJY-alpha cells for induction of C-type virus; assay type: cell-based; settings: 0.5 to 48 hour pulse or 8 months culture in the tripeptide
# Source text: The possible multifocal action of this antitumor tripeptide was a concern during examination of this compound. Since virus particles obtained by induction are infectious and oncogenic, PTT.119-treated cells were monitored for the presence of C-type virus. […] In addition, no diminution of the inhibitory effect of PTT.119 or enhancement of B-type retrovirus production was observed under these conditions.
# [7] = tested on: L1210 MTX; assay: MTX and cisplatin cross-resistance test, 24 hour exposure; assay type: cell-based
# [8] = tested on: L1210DDP; assay: cells; assay type: cell-based
# [9] = tested on: L1210/L-PAM leukemia; assay: cells; assay type: cell-based, mice
# [10] = tested on: L1210/L-PAM leukemia cells; design: species or system BDF1 mice; settings: mouse, in vivo
# [11] = Mus musculus, L1210, 24 h, read-out: T.C.D.50
smiles,measurement,setting,value
"CCOC(=O)[C@H](CCSC)NC(=O)[C@H](Cc1cccc(N(CCCl)CCCl)c1)NC(=O)[C@@H](N)Cc1ccc(F)cc1.Cl [PTT.119, 3-(p-fluorophenyl)-L-alanyl-3-[m-bis(2-chloroethyl)aminophenyl]-L-alanyl-L-methionine ethyl ester hydrochloride]",levels of extracellular MMTV compared to control cells,"[1]; 0.15, 1.5 and 7.5 uM, after 10 in vitro passages",less than 50%
same,ug MMTV protein/150 cm^2 culture,"[1]; continual 0.15 uM, passage 1",17.4 µg
same,ug MMTV protein/150 cm^2 culture,"[1]; continual 0.15 uM, passage 5-6",16.8 µg
same,ug MMTV protein/150 cm^2 culture,"[1]; continual 0.15 uM, passage 9-10",9.52 µg
same,ug MMTV protein/150 cm^2 culture,"[1]; continual 1.5 uM, passage 5-6",15.9 µg
same,ug MMTV protein/150 cm^2 culture,"[1]; continual 1.5 uM, passage 9-10",7.5 µg
same,ug MMTV protein/150 cm^2 culture,"[1]; continual 7.5 uM, passage 5-6",11.8 µg
same,ug MMTV protein/150 cm^2 culture,"[1]; continual 7.5 uM, passage 9-10",8.3 µg
same,"MMTV protein, % of control level","[1]; day 1, 15 uM 2 hr pulse",78%
same,ug MMTV protein/75 cm^2 flask,"[1]; day 1, 15 uM 2 hr pulse, control 20.6",16.0 µg
same,"MMTV protein, % of control level","[1]; day 1, 15 uM 4 hr pulse",81%
same,ug MMTV protein/75 cm^2 flask,"[1]; day 1, 15 uM 4 hr pulse, control 20.6",16.7 µg
same,"MMTV protein, % of control level","[1]; day 1, 37.5 uM 0.5 hr pulse",70%
same,ug MMTV protein/75 cm^2 flask,"[1]; day 1, 37.5 uM 0.5 hr pulse, control 20.6",14.4 µg
same,"MMTV protein, % of control level","[1]; day 1, 37.5 uM 1.0 hr pulse",53%
same,ug MMTV protein/75 cm^2 flask,"[1]; day 1, 37.5 uM 1.0 hr pulse, control 20.6",11.0 µg
same,"MMTV protein, % of control level","[1]; day 2, 15 uM 2 hr pulse",64%
same,ug MMTV protein/75 cm^2 flask,"[1]; day 2, 15 uM 2 hr pulse, control 19.3",12.3 µg
same,"MMTV protein, % of control level","[1]; day 2, 15 uM 4 hr pulse",62%
same,ug MMTV protein/75 cm^2 flask,"[1]; day 2, 15 uM 4 hr pulse, control 19.3",11.9 µg
same,"MMTV protein, % of control level","[1]; day 2, 37.5 uM 0.5 hr pulse",57%
same,ug MMTV protein/75 cm^2 flask,"[1]; day 2, 37.5 uM 0.5 hr pulse, control 19.3",11.0 µg
same,"MMTV protein, % of control level","[1]; day 2, 37.5 uM 1.0 hr pulse",58%
same,ug MMTV protein/75 cm^2 flask,"[1]; day 2, 37.5 uM 1.0 hr pulse, control 19.3",11.2 µg
same,"MMTV protein, % of control level","[1]; day 7, 15 uM 2 hr pulse",31%
same,ug MMTV protein/75 cm^2 flask,"[1]; day 7, 15 uM 2 hr pulse, control 35.2",11.0 µg
same,"MMTV protein, % of control level","[1]; day 7, 15 uM 4 hr pulse",22%
same,ug MMTV protein/75 cm^2 flask,"[1]; day 7, 15 uM 4 hr pulse, control 35.2",7.6 µg
same,"MMTV protein, % of control level","[1]; day 7, 37.5 uM 0.5 hr pulse",16%
same,ug MMTV protein/75 cm^2 flask,"[1]; day 7, 37.5 uM 0.5 hr pulse, control 35.2",5.8 µg
same,"MMTV protein, % of control level","[1]; day 7, 37.5 uM 1.0 hr pulse",3%
same,ug MMTV protein/75 cm^2 flask,"[1]; day 7, 37.5 uM 1.0 hr pulse, control 35.2",0.9 µg
same,T.C.D.100,[2],37.5
same,elimination of viable population,[2],completely eliminated the viable population
same,surviving fraction at end of examination period,[2],15%
same,percentage of viable cells,[2]; 3.75 µM,40-50%
same,IC50,[2]; [11],9000 nM
same,Percent Tumor Cell Survival,[3]; 1 ug/ml,54%
same,% tumor cell survival,"[3]; 5 ug/ml, 1 hr",100%
same,% tumor cell survival,"[3]; 5 ug/ml, 4 hr",100%
same,% tumor cell survival,"[3]; 5 ug/ml, 8 hr",100%
same,% tumor cell survival,"[3]; 5 ug/ml, 24 hr",53%
same,Percent Tumor Cell Survival,[3]; 5 ug/ml,41%
same,% tumor cell survival,"[3]; 10 ug/ml, 1 hr",100%
same,% tumor cell survival,"[3]; 10 ug/ml, 4 hr",100%
same,% tumor cell survival,"[3]; 10 ug/ml, 8 hr",100%
same,% tumor cell survival,"[3]; 10 ug/ml, 24 hr",53%
same,Percent Tumor Cell Survival,[3]; 10 ug/ml,36%
same,% tumor cell survival,"[3]; 25 ug/ml, 1 hr",100%
same,% tumor cell survival,"[3]; 25 ug/ml, 4 hr",100%
same,% tumor cell survival,"[3]; 25 ug/ml, 8 hr",98%
same,% tumor cell survival,"[3]; 25 ug/ml, 24 hr",25%
same,Percent Tumor Cell Survival,[3]; 25 ug/ml,27%
same,% tumor cell survival,"[3]; 50 ug/ml, 1 hr",98%
same,% tumor cell survival,"[3]; 50 ug/ml, 4 hr",87%
same,% tumor cell survival,"[3]; 50 ug/ml, 8 hr",62%
same,% tumor cell survival,"[3]; 50 ug/ml, 24 hr",19%
same,Percent Tumor Cell Survival,[3]; 50 ug/ml,20%
same,reduction of tumor cell survival,[3]; another 24 hours,25%
same,reduction of tumor cell survival,[3]; zero to 24 hours,8%
same,decrease in mammary tumor cell survival,"[3]; continuous 24 hr exposure, all concentrations tested (0.1 to 50 ug/ml)",46-80%
same,% tumor cell survival,"[4]; 1 ug/ml, 1 hr",95%
same,% tumor cell survival,"[4]; 1 ug/ml, 4 hr",85%
same,% tumor cell survival,"[4]; 1 ug/ml, 24 hr",66%
same,% tumor cell survival,"[4]; 5 ug/ml, 1 hr",50%
same,% tumor cell survival,"[4]; 5 ug/ml, 4 hr",52%
same,% tumor cell survival,"[4]; 5 ug/ml, 24 hr",6%
same,% tumor cell survival,"[4]; 10 ug/ml, 1 hr",60%
same,% tumor cell survival,"[4]; 10 ug/ml, 4 hr",41%
same,% tumor cell survival,"[4]; 10 ug/ml, 24 hr",21%
same,% tumor cell survival,"[4]; 25 ug/ml, 1 hr",20%
same,% tumor cell survival,"[4]; 25 ug/ml, 4 hr",15%
same,% tumor cell survival,"[4]; 25 ug/ml, 24 hr",14%
same,% tumor cell survival,"[4]; 50 ug/ml, 1 hr",4%
same,% tumor cell survival,"[4]; 50 ug/ml, 4 hr",3%
same,% tumor cell survival,"[4]; 50 ug/ml, 24 hr",4%
same,cytotoxicity lower compared to untreated L1210 cells,[5],20-30%
same,"dose response curves of L1210, L1210-T1 and L1210-T2",[5],no differences could be detected
same,viability in continuous treatment,[5],nonviable
same,viability of L1210-T1 in continuous treatment,[5],nonviable
same,endogenous (C-type) virus production,[6],no detection of any endogenous virus production
same,T.C.D.100,"[7]; L1210 MTX, 24 hours exposure",3.75 µM
same,IC50,[7]; [11],1940 nM
same,IC50,"[8]; 24 h, read-out: T.C.D.50",525 nM
same,concentration at which remaining L1210DDP population becomes sensitive,[8]; 24 hours exposure,4 to 15 µM
same,share of L1210DDP cells highly susceptible,"[8]; doses of 1 uM, 24 hours",Approximately 60%
same,T.C.D.100,[9],30.0
same,surviving fraction at end of examination period,[9],0.8-3%
same,percentage of viable cells,[9]; 3.75 µM,40-50%
same,IC50,"[9]; Mus musculus, L1210/LPAM, 24 h, read-out: T.C.D.50",3000 nM
same,tumorigenicity of L1210/L-PAM cells,[10],Complete abrogation
